The record followed here is ChEMBL document CHEMBL1158181, “Studies of trypanocidal (inhibitory) power of naphthoquinones: evaluation of quantum chemical molecular descriptors for structure-activity relationships” (Eur J Med Chem, 2008).

The structures appear in SMILES notation. pIC50: −log10 of the molar value.

Data set [1] relates to Crithidia fasciculata. Briefly: Antitrypanosomal activity against Crithidia fasciculata. The data set is classed as functional, organism-based.
Data set [2] in a line: Oxidation of dihydrolipoamide assessed as oxygen consumption at 50 uM. It is filed as physicochemical.
Data set [3] is described as follows: Oxidation of dithiothreitol assessed as oxygen consumption at 50 uM. The data set is classed as physicochemical.
Data set [4] has as its system Leptomonas seymouri. Briefly: Antitrypanosomal activity against Leptomonas seymouri. It is filed as functional, organism-based.

Take `CC1(c2ccccc2)CCC2=C(O1)c1ccccc1C(=O)C2=O` (centres undefined): the pIC50 in data set [1] and in data set [4] was 6.15 each time. Further, the Activity in data set [2] stood at 990 µM/min; in data set [3], 315 µM/min.

Take `CCC1(C)CCC2=C(O1)c1ccccc1C(=O)C2=O` (centres undefined): the pIC50 (in general, −log10 of the IC50, conventionally taken in molar units) in data set [1] was 6.10; in data set [4] it was 6.52. In addition, the Activity in data set [2] came to 733 µM/min; in data set [3], 208 µM/min.

`CC1=Cc2c(C(C)C)ccc(C)c2C(=O)C1=O`: the values for the pIC50 in data set [1] and in data set [4] were 5.22 and 5.40, respectively. Further, the Activity in data set [2] is 434 µM/min.

On to `CC1(C)CCC2=C(O1)c1cc(Cl)ccc1C(=O)C2=O`, for which the negative logarithm of the IC50 (pIC50) in data set [1] was 6.10; in data set [4] it was 6.40. In addition, the Activity came out at 879 µM/min in data set [2] and 470 µM/min in data set [3].

Turning to `CC1(C)CCC2=C(O1)C(=O)c1ccccc1C2=O` [ALPHA-LAPACHONE], the pIC50 in data set [1] is 4.57; in data set [4], 5.39. For the same molecule, the Activity in data set [2] came to 7 µM/min; in data set [3], 1 µM/min.

For `CC1(C)CCC2=C(O1)c1ccccc1C(=O)C2=O` [LAPACHONE], the Activity in data set [2] is 808 µM/min; in data set [3], 238 µM/min. For the same molecule, the pIC50 in data set [4] was 6.40.

As to `CC1=CC2=C(C(=O)C1=O)C(C)CCC2C(C)C` (centres undefined) [MANSONONE A], the negative-log IC50 (pIC50) is 4.82 in data set [1] and 5.07 in data set [4]. Further, the Activity in data set [2] worked out at 26 µM/min; in data set [3], 37 µM/min.

For the molecule `CC1=C2OCC(C)c3ccc(C)c(c32)C(=O)C1=O` (centres undefined) [MANSONONE E], the values for the pIC50 in data set [1] and in data set [4] were 6.22 and 6.40, respectively. Besides, the Activity worked out at 276 µM/min in data set [2] and 66 µM/min in data set [3].

`CC1=COC2=C(C)C(=O)C(=O)c3c(C)ccc1c32` [MANSONONE F]: the negative logarithm of the IC50 (pIC50) was 6.52 in data set [1] and 7.00 in data set [4]. Further, the Activity came out at 58 µM/min in data set [2] and 14 µM/min in data set [3].
